# Activity calls are given as the source filed them. No cut-off for these calls is given here.
# Columns and labels:
# Assay type in all cases: nucleic-acid assay
# Nucleic Acid [1] = assay: Induction of UV light-induced Escherichia coli pUC19 DNA cleavage assessed as conversion of supercoiled DNA into nicked form at 80 uM by neutral agarose gel electrophoresis
# Nucleic Acid [2] = assay: Induction of Escherichia coli pUC19 DNA cleavage assessed as conversion of supercoiled DNA into nicked circular form at 40 to 80 uM by neutral agarose gel electrophoresis in presence of UV light
# Nucleic Acid [3] = assay: Induction of UV light-induced Escherichia coli pUC19 DNA cleavage assessed as conversion of supercoiled DNA into linear form at 80 uM by neutral agarose gel electrophoresis
SMILES,Activity (Nucleic Acid [1]),Activity (Nucleic Acid [2]),Activity (Nucleic Acid [3])
O=C(O/N=C/c1cc2ccccc2nc1Cl)c1ccc([N+](=O)[O-])cc1,Active,Active,Active
O=C(O/N=C/c1cc2ccccc2nc1Cl)c1ccc(Cl)cc1,Active,Active,Active
O=C(O/N=C/c1cc2ccccc2nc1Cl)c1cc([N+](=O)[O-])cc([N+](=O)[O-])c1,Active,Active,Active
COc1ccc(C(=O)O/N=C/c2cc3ccccc3nc2Cl)cc1,inactive,Active,inactive

# More lines, now with the values ahead:
Activity (Nucleic Acid [1]),Activity (Nucleic Acid [2]),Activity (Nucleic Acid [3]),SMILES
inactive,Active,inactive,O=C(O/N=C/c1cc2ccccc2nc1Cl)c1ccc(O)cc1
Active,Active,Active,O=C(O/N=C/c1cc2ccccc2nc1Cl)c1ccc(F)cc1
Active,Active,Active,O=C(O/N=C/c1cc2ccccc2nc1Cl)c1ccc(Br)cc1
inactive,Active,inactive,O=C(O/N=C/c1cc2ccccc2nc1Cl)c1ccccc1
Active,Active,Active,O=C(O/N=C/c1cc2ccccc2nc1Cl)c1ccccc1F
